# In ChEMBL document CHEMBL4382214, “Antileishmanial activity of new hybrid tetrahydroquinoline and quinoline derivatives with phosphorus substituents” (Eur J Med Chem, 2019):
# Calls of active or inactive are those of the source. The calls are words filed in the database; no cut-off is given here.
# What was measured:
# [1] = system: Leishmania infantum; experiment: Leishmanicidal activity against promastigote stage of iRFP expressing Leishmania infantum BCN150 assessed as decrease in parasite viability after 72 hrs by fluorescence assay; assay type: functional, organism-based; settings: BCN150, 72 h
# [2] = system: Leishmania donovani; experiment: Inhibition of Leishmania donovani Top1B expressed in Top1B deficient Saccharomyces cerevisiae EKY3 assessed as decrease in relaxation of supercoiled pSK DNA preincubated for 15 mins followed by DNA addition and measured after 2 to 16 mins by agarose gel electrophoresis
# [3] = system: Leishmania infantum; experiment: Leishmanicidal activity against amastigote stage of iRFP expressing Leishmania infantum BCN150 infected in BALB/c mouse splenocytes assessed as decrease in parasite viability by fluorescence assay; assay type: functional, organism-based
# [4] = Cytotoxicity against BALB/c mouse splenocytes assessed as reduction in cell viability by alamar blue assay; assay type: cell-based, Splenocyte
# [5] = Selectivity index, ratio of CC50 for BALB/c mouse splenocytes to EC50 for amastigote stage of iRFP expressing Leishmania infantum BCN150 infected in BALB/c mouse splenocytes; assay type: toxicity, cell-based; settings: read-out: Ratio CC50/EC50
# [6] = Inhibition of Leishmania donovani Top1B expressed in Top1B deficient Saccharomyces cerevisiae EKY3 assessed as decrease in relaxation of supercoiled pSK DNA preincubated for 15 mins followed by DNA addition and measured after 5 mins by agarose gel electrophoresis
# [7] = target: T1, DNA topoisomerase 1 (Homo sapiens, UniProt P11387); experiment: Inhibition of human Top1B expressed in Top1B deficient Saccharomyces cerevisiae EKY3 assessed as decrease in relaxation of supercoiled pSK DNA preincubated for 15 mins followed by DNA addition and measured after 5 mins by agarose gel electrophoresis
# T1 sequence (P11387 whole entry): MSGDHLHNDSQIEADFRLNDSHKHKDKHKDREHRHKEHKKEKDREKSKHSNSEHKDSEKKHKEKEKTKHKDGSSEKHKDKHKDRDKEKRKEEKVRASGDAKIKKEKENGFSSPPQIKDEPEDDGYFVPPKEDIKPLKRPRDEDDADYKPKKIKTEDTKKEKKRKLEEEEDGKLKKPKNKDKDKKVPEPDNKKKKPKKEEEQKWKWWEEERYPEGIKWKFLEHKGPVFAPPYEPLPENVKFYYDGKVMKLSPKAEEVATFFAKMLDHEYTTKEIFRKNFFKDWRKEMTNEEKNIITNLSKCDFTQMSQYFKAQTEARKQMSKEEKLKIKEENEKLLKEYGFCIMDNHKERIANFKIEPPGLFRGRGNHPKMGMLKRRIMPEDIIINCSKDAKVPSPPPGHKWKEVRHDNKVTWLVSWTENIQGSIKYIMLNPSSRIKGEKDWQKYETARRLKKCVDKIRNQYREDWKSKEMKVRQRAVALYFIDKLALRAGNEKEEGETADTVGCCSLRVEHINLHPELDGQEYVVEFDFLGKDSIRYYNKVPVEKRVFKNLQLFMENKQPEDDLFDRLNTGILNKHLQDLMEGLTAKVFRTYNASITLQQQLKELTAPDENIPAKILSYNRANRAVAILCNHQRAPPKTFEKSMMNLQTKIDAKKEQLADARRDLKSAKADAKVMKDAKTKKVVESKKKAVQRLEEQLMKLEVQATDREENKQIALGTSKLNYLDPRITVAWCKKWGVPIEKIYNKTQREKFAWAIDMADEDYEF
# [8] = target: T2, DNA topoisomerase 1 (Homo sapiens) (UniProt P11387); experiment: Inhibition of human Top1B expressed in Top1B deficient Saccharomyces cerevisiae EKY3 assessed as decrease in relaxation of supercoiled pSK DNA preincubated for 15 mins followed by DNA addition and measured after 2 to 16 mins by agarose gel electrophoresis
# T2 sequence (whole entry): T1 sequence (P11387 whole entry)
# [9] = system: Leishmania donovani; experiment: Inhibition of Leishmania donovani Top1B expressed in Top1B deficient Saccharomyces cerevisiae EKY3 assessed as decrease in relaxation of supercoiled pSK DNA preincubated for 15 mins followed by DNA addition and measured after 2 to 4 mins by agarose gel electrophoresis
# [10] = system: Leishmania donovani; experiment: Inhibition of Leishmania donovani Top1B expressed in Top1B deficient Saccharomyces cerevisiae EKY3 assessed as decrease in relaxation of supercoiled pSK DNA preincubated for 15 mins followed by DNA addition and measured after 8 to 16 mins by agarose gel electrophoresis
# [11] = target: T2, DNA topoisomerase 1 (Homo sapiens); experiment: Inhibition of human Top1B expressed in Top1B deficient Saccharomyces cerevisiae EKY3 assessed as decrease in relaxation of supercoiled pSK DNA preincubated for 15 mins followed by DNA addition and measured after 2 to 4 mins by agarose gel electrophoresis
# [12] = target: T2, DNA topoisomerase 1 (Homo sapiens); experiment: Inhibition of human Top1B expressed in Top1B deficient Saccharomyces cerevisiae EKY3 assessed as decrease in relaxation of supercoiled pSK DNA preincubated for 15 mins followed by DNA addition and measured after 8 to 16 mins by agarose gel electrophoresis
# [13] = system: Leishmania donovani; experiment: Inhibition of Leishmania donovani Top1B expressed in Top1B deficient Saccharomyces cerevisiae EKY3 assessed as decrease in relaxation of supercoiled pSK DNA preincubated for 15 mins followed by DNA addition and measured after 2 to 8 mins by agarose gel electrophoresis
# [14] = system: Leishmania donovani; experiment: Inhibition of Leishmania donovani Top1B expressed in Top1B deficient Saccharomyces cerevisiae EKY3 assessed as decrease in relaxation of supercoiled pSK DNA preincubated for 15 mins followed by DNA addition and measured after 16 mins by agarose gel electrophoresis
# [15] = target: T2, DNA topoisomerase 1 (Homo sapiens); experiment: Inhibition of human Top1B expressed in Top1B deficient Saccharomyces cerevisiae EKY3 assessed as decrease in relaxation of supercoiled pSK DNA preincubated for 15 mins followed by DNA addition and measured after 2 to 8 mins by agarose gel electrophoresis
# [16] = target: T2, DNA topoisomerase 1 (Homo sapiens); experiment: Inhibition of human Top1B expressed in Top1B deficient Saccharomyces cerevisiae EKY3 assessed as decrease in relaxation of supercoiled pSK DNA preincubated for 15 mins followed by DNA addition and measured after 16 mins by agarose gel electrophoresis
# [17] = system: Leishmania donovani; experiment: Inhibition of Leishmania donovani Top1B expressed in Top1B deficient Saccharomyces cerevisiae EKY3 assessed as decrease in relaxation of supercoiled pSK DNA preincubated for 15 mins followed by DNA addition and measured after 2 mins by agarose gel electrophoresis
# [18] = system: Leishmania donovani; experiment: Inhibition of Leishmania donovani Top1B expressed in Top1B deficient Saccharomyces cerevisiae EKY3 assessed as decrease in relaxation of supercoiled pSK DNA preincubated for 15 mins followed by DNA addition and measured after 4 to 16 mins by agarose gel electrophoresis
Compound,EC50 [1] [µM],inhibition [2],EC50 [3] [µM],CC50 [4] [µM],selectivity ratio [5],IC50 [6],IC50 [7],IC50 ([6]; read-out: IC50) [µM],inhibition [8],IC50 ([7]; read-out: IC50) [µM],inhibition [9],inhibition [10],inhibition [11],inhibition [12],inhibition [13],inhibition [14],inhibition [15],inhibition [16],inhibition [17],inhibition [18]
COc1ccccc1[C@@H]1C[C@H](c2ccccc2)c2cccc(P(=O)(c3ccccc3)c3ccccc3)c2N1 (relative stereo),9.39,inactive,0.98,34.2,34.9,Not Active,Not Active,,,,,,,,,,,,,
C[C@@H]1[C@H](O)[C@@H](C)/C=C/C=C/C=C/C=C/C=C/C=C/C=C/[C@H](O[C@@H]2O[C@H](C)[C@@H](O)[C@H](N)[C@@H]2O)C[C@@H]2O[C@](O)(C[C@@H](O)C[C@@H](O)[C@H](O)CC[C@@H](O)C[C@@H](O)CC(=O)O[C@H]1C)C[C@H](O)[C@H]2C(=O)O [AMPHOTERICIN B],0.77,,0.32,> 20,62.5,,,,,,,,,,,,,,,
COc1ccc([C@@H]2C[C@H](c3ccc(C)cc3)c3cccc(P(c4ccccc4)c4ccccc4)c3N2)cc1 (relative stereo),27.7,Active,5.96,> 50,> 8.4,,,23.6,Active,84.6,,,,,,,,,,
O=P(c1ccccc1)(c1ccccc1)c1cccc2c(-c3ccccc3)cc(-c3ccc4ccccc4c3)nc12,4.91,inactive,4.14,57.1,13.8,Not Active,Not Active,,,,,,,,,,,,,
Fc1ccc(-c2cc(-c3ccc(C(F)(F)F)cc3)nc3c(P(=S)(c4ccccc4)c4ccccc4)cccc23)cc1,8.83,,> 10,89.7,,,,34.3,,27.4,Active,inactive,Active,inactive,,,,,,
O=P(c1ccccc1)(c1ccccc1)c1cccc2c1N[C@H](c1ccc(F)c(F)c1)C[C@@H]2c1ccc(F)cc1 (relative stereo),6.15,inactive,1.46,63.7,43.6,Not Active,Not Active,,,,,,,,,,,,,
Fc1ccc([C@H]2C[C@@H](c3ccccc3)Nc3c2cccc3P(c2ccccc2)c2ccccc2)cc1 (relative stereo),3.14,Active,1.75,90.6,51.8,,,54.2,Active,42.2,,,,,,,,,,
Fc1ccc(-c2cc(-c3ccc(F)cc3)c3cccc(P(=S)(c4ccccc4)c4ccccc4)c3n2)cc1,11,inactive,> 10,92.1,,Not Active,Not Active,,,,,,,,,,,,,
O=P(c1ccccc1)(c1ccccc1)c1cccc2c(-c3ccc(F)cc3)cc(-c3ccc(F)c(F)c3)nc12,2.33,,2.15,23.9,11.1,,,48.1,,69.6,,,,,Active,inactive,Active,inactive,,
COc1ccc([C@@H]2C[C@H](c3ccccc3)c3cccc(P(=S)(c4ccccc4)c4ccccc4)c3N2)cc1 (relative stereo),10.7,,0.61,34.7,56.9,,Not Active,93.7,,,Active,inactive,,,,,,,,
Cc1ccc([C@H]2C[C@@H](c3ccc(F)cc3)Nc3c2cccc3P(=O)(c2ccccc2)c2ccccc2)cc1 (relative stereo),7.1,inactive,1.85,13.8,7.47,Not Active,Not Active,,,,,,,,,,,,,
CC[C@@]1(O)C(=O)OCc2c1cc1n(c2=O)Cc2cc3ccccc3nc2-1 [CAMPTOTHECIN],,,,,,Not Active,Not Active,,,,,,,,,,,,Active,inactive
O=[N+]([O-])c1ccc([C@@H]2C[C@H](c3ccccc3)c3cccc(P(=S)(c4ccccc4)c4ccccc4)c3N2)cc1 (relative stereo),36.4,inactive,2.73,57,20.9,Not Active,Not Active,,,,,,,,,,,,,
O=P(c1ccccc1)(c1ccccc1)c1cccc2c(-c3ccc(F)cc3)cc(-c3ccccc3)nc12,6.01,inactive,1.39,71,51.1,Not Active,Not Active,,,,,,,,,,,,,
Cc1ccc([C@H]2C[C@@H](c3ccc(F)cc3)Nc3c2cccc3P(c2ccccc2)c2ccccc2)cc1 (relative stereo),20.9,Active,1.79,47,26.2,,,47.9,Active,44.8,,,,,,,,,,
